Test results as given in patent US20250312258A1, “2,3-PYRROLIDINEDIONE CONJUGATES AND METHODS OF USING THEREOF” (North Carolina State University, priority 2022, published 2025).
In brackets after ≈: the same amount, converted by molar mass. Read-outs that look alike come from different tables or passages of the source.

Experiments:
Assay type in all cases: cell-based
MSSA = test: MIC against MSSA strain panel; details: Staphylococcus aureus, the 4th table, read-out: MIC
ATCC 29212 E. faecalis = test: MIC against ATCC 29212 E. faecalis; details: Enterococcus faecalis, ATCC29212, ATCC 29212 E. faecalis, read-out: MIC
S. pneumoniae = test: MIC against S. pneumoniae strain panel; details: Streptococcus pneumoniae, read-out: MIC
Group A Strep = test: MIC against Group A Strep strain panel; details: read-out: MIC
Group B Strep = test: MIC against Group B Strep strain panel; details: read-out: MIC
E. coli = test: MIC against E. coli strains; details: the 4th table

MIC (MSSA; VGP16-98 MSSA): 1 µg/mL (≈ 2.61 µM)
MIC (MSSA; VGP16-99 MSSA): 1 µg/mL (≈ 2.61 µM)
MIC (MSSA; VGP16-100 MSSA): 1 µg/mL (≈ 2.61 µM)
MIC (MSSA; VGP16-101 MSSA): 1 µg/mL (≈ 2.61 µM)
MIC (MSSA; VGP16-116 MSSA): 1 µg/mL (≈ 2.61 µM)
MIC (MSSA; VGP16-117 MSSA): 1 µg/mL (≈ 2.61 µM)
MIC (ATCC 29212 E. faecalis; the 4th table): 2 µg/mL (≈ 5.23 µM)
MIC (ATCC 29212 E. faecalis; the 6th table): 2 µg/mL (≈ 5.23 µM)
MIC (S. pneumoniae; ATCC49619, ATCC 49619 S. pneumoniae, CA-MHB w/5% LHB, the 4th table): 0.25 µg/mL (≈ 0.654 µM)
MIC (S. pneumoniae; ATCC49619, ATCC 49619 S. pneumoniae, the 7th table): 0.5 µg/mL (≈ 1.31 µM)
MIC (S. pneumoniae; CO314937 S. pneumoniae, CA-MHB w/5% LHB, the 4th table): 0.5 µg/mL (≈ 1.31 µM)
MIC (S. pneumoniae; CT3-5008 S. pneumoniae, the 7th table): 0.5 µg/mL (≈ 1.31 µM)
MIC (S. pneumoniae; CT3-5803 S. pneumoniae, the 7th table): 0.5 µg/mL (≈ 1.31 µM)
MIC (S. pneumoniae; CT3-8501 S. pneumoniae, the 7th table): 0.5 µg/mL (≈ 1.31 µM)
MIC (S. pneumoniae; CT4-3048 S. pneumoniae, the 7th table): 0.5 µg/mL (≈ 1.31 µM)
MIC (S. pneumoniae; CT4-9046 S. pneumoniae, the 7th table): 0.25 µg/mL (≈ 0.654 µM)
MIC (S. pneumoniae; CT4-9693 S. pneumoniae, the 7th table): 0.5 µg/mL (≈ 1.31 µM)
MIC (S. pneumoniae; CT5-6541 S. pneumoniae, the 7th table): 0.5 µg/mL (≈ 1.31 µM)
MIC (S. pneumoniae; CT5-8032 S. pneumoniae, the 7th table): 0.5 µg/mL (≈ 1.31 µM)
MIC (S. pneumoniae; CT5-9124 S. pneumoniae, the 7th table): 0.25 µg/mL (≈ 0.654 µM)
MIC (S. pneumoniae; CT6-0670 S. pneumoniae, the 7th table): 0.5 µg/mL (≈ 1.31 µM)
MIC (S. pneumoniae; CT6-7691 S. pneumoniae, the 7th table): 0.5 µg/mL (≈ 1.31 µM)
MIC (S. pneumoniae; CT0200-2241 S. pneumoniae, the 7th table): 0.5 µg/mL (≈ 1.31 µM)
MIC (S. pneumoniae; CT0200-2730 S. pneumoniae, the 7th table): 0.5 µg/mL (≈ 1.31 µM)
MIC (S. pneumoniae; MD77773 S. pneumoniae, CA-MHB w/5% LHB, the 4th table): 0.5 µg/mL (≈ 1.31 µM)
MIC (Group A Strep; 2007-11 Group A Strep, the 8th table): 0.5 µg/mL (≈ 1.31 µM)
MIC (Group A Strep; 2007-28 Group A Strep, the 8th table): 0.5 µg/mL (≈ 1.31 µM)
MIC (Group A Strep; 2007-49 Group A Strep, the 8th table): 0.5 µg/mL (≈ 1.31 µM)
MIC (Group A Strep; 2007-73 Group A Strep, the 8th table): 0.5 µg/mL (≈ 1.31 µM)
MIC (Group A Strep; 2007-107 Group A Strep, the 8th table): 0.5 µg/mL (≈ 1.31 µM)
MIC (Group A Strep; 2007-1101 Group A Strep, the 8th table): 0.5 µg/mL (≈ 1.31 µM)
MIC (Group A Strep; 2008-06 Group A Strep, the 8th table): 0.5 µg/mL (≈ 1.31 µM)
MIC (Group A Strep; 2008-45 Group A Strep, the 8th table): 0.5 µg/mL (≈ 1.31 µM)
MIC (Group A Strep; 2008-818 Group A Strep, CA-MHB w/5% LHB, the 4th table): 0.25 µg/mL (≈ 0.654 µM)
MIC (Group A Strep; 2008-1565 Group A Strep, the 8th table): 0.5 µg/mL (≈ 1.31 µM)
MIC (Group A Strep; 2008-1692 Group A Strep, the 8th table): 0.5 µg/mL (≈ 1.31 µM)
MIC (Group A Strep; 2008-1732 Group A Strep, CA-MHB w/5% LHB, the 4th table): 0.25 µg/mL (≈ 0.654 µM)
MIC (Group A Strep; 2009-8 Group A Strep, the 8th table): 0.5 µg/mL (≈ 1.31 µM)
MIC (Group A Strep; 2009-37 Group A Strep, CA-MHB w/5% LHB, the 4th table): 0.5 µg/mL (≈ 1.31 µM)
MIC (Group A Strep; 2009-106 Group A Strep, the 8th table): 0.5 µg/mL (≈ 1.31 µM)
MIC (Group A Strep; 2009-109 Group A Strep, the 8th table): 0.5 µg/mL (≈ 1.31 µM)
MIC (Group A Strep; 2009-114 Group A Strep, the 8th table): 0.5 µg/mL (≈ 1.31 µM)
MIC (Group A Strep; 2009-136 Group A Strep, the 8th table): 0.5 µg/mL (≈ 1.31 µM)
MIC (Group B Strep; 2008-57 Group B Strep, the 9th table): 0.5 µg/mL (≈ 1.31 µM)
MIC (Group B Strep; 2008-70 Group B Strep, the 9th table): 0.5 µg/mL (≈ 1.31 µM)
MIC (Group B Strep; 2008-87 Group B Strep, CA-MHB w/5% LHB, the 4th table): 0.5 µg/mL (≈ 1.31 µM)
MIC (Group B Strep; 2008-115 Group B Strep, the 9th table): 0.5 µg/mL (≈ 1.31 µM)
MIC (Group B Strep; 2009-20 Group B Strep, the 9th table): 0.5 µg/mL (≈ 1.31 µM)
MIC (Group B Strep; 2009-40 Group B Strep, the 9th table): 0.5 µg/mL (≈ 1.31 µM)
MIC (Group B Strep; 2009-43 Group B Strep, the 9th table): 0.5 µg/mL (≈ 1.31 µM)
MIC (Group B Strep; 2009-51 Group B Strep, the 9th table): 0.5 µg/mL (≈ 1.31 µM)
MIC (Group B Strep; 2009-57 Group B Strep, the 9th table): 0.5 µg/mL (≈ 1.31 µM)
MIC (Group B Strep; 2009-59 Group B Strep, the 9th table): 0.5 µg/mL (≈ 1.31 µM)
MIC (Group B Strep; 2009-60 Group B Strep, the 9th table): 0.5 µg/mL (≈ 1.31 µM)
MIC (Group B Strep; 2009-61 Group B Strep, CA-MHB w/5% LHB, the 4th table): 0.5 µg/mL (≈ 1.31 µM)
MIC (Group B Strep; 2009-62 Group B Strep, CA-MHB w/5% LHB, the 4th table): 0.25 µg/mL (≈ 0.654 µM)
MIC (Group B Strep; J4182 Group B Strep, the 9th table): 0.5 µg/mL (≈ 1.31 µM)
MIC (Group B Strep; J4183 Group B Strep, the 9th table): 0.5 µg/mL (≈ 1.31 µM)
MIC (Group B Strep; J4185 Group B Strep, the 9th table): 0.5 µg/mL (≈ 1.31 µM)
MIC (Group B Strep; J4186 Group B Strep, the 9th table): 0.5 µg/mL (≈ 1.31 µM)
MIC (Group B Strep; J4222 Group B Strep, the 9th table): 0.5 µg/mL (≈ 1.31 µM)
MIC (E. coli; AR-137 E. coli): >64 µg/mL
MIC (E. coli; Escherichia coli, ATCC25922, ATCC 25922 E. coli, read-out: MIC): > 64 µg/mL
MIC (E. coli; Escherichia coli, AR-451 E. coli, read-out: MIC): > 64 µg/mL
SMILES: CCC1C(c2ccc(C(F)(F)F)cc2)=C(O)C(=O)N1C1CCC(NC)CC1 (stereo not shown) [Compound 4]
